Reference: US8637665B2, “Pyrrolo[2,L-C][L,4]benzodiazepine-benzothiazole or benzoxazole conjugates linked through piperazine moiety and process for the preparation thereof” (priority 2010, dated 2014)
Read-outs that look alike come from different tables or passages of the source.

Columns and labels:
[1] = tested on: duplex-form calf thymus DNA (CT-DNA); assay: Thermal denaturation studies with calf thymus DNA (DNA binding affinity); conditions: [PBD]:[DNA] 1:5, CT-DNA 100 μM, ligand 20 μM, pH 7.00
Description: Compounds have been subjected to thermal denaturation studies with duplex-form calf thymus DNA (CT-DNA) using an modification of a reported procedure (Newman, M. S. Carcinog-compr. Surv. 1976,1, 203; (b) Hecht, S. S.; Loy, M.; Hoffman, Carcinog-compr. Surv. 1976, 1, 325). Working solutions in aqueous buffer (10 mM NaH2PO4/Na2HPO4, 1 mM Na2EDTA, pH 7.00+0.01) containing CT-DNA (100 μm in phosphate) and the PBD (20 μm) have been prepared by addition of concentrated PBD solutions in DMSO to obtain a fixed [PBD]/[DNA] molar ratio of 1:5. The DNA-PBD solutions have been incubated at 37° C. for 0 and 18 h prior to analysis. Samples have been monitored at 260 using a Beckman DU-800 spectrophotometer fitted with high performance temperature controller, and heated at 1° C. min^−1 in the 40-110° C. range. DNA helix→coil transition temperatures (Tm) have been obtained from the maxima in the d(A260)/dT derivative plots. Drug-induced alterations in DNA melting behavior are given by: ΔTm=Tm(DNA+PBD)−Tm(DNA alone), where the Tm value for the PBD-free CT-DNA is 69.1±0.01.
The DNA binding activity for these novel C8-linked benzothiazole, benzoxazole-PBD hybrids has been examined by thermal denaturation studies using calf thymus (CT) DNA. […] The data for the compounds 9a-n is included in Table 7 for comparison.

[2] = tested on: KB (oral cancer) cell line; assay: In vitro anticancer activity, SRB assay, KB; format: cell-based, human; conditions: for GI50: mean of three determinations
Description: (§1) Anticancer activity: In vitro biological activity studies were carried out at the Advance Center for Treatment Research & Education in Cancer (ACTREC), Navi Mumbai.
(§2) The compounds were evaluated for in vitro anticancer activity against eight tumour cells lines derived from seven cancer types (non-small-cell lung, colon, oral, cervix, ovarian, prostate, and breast cancer) as shown in Table 2. For each compound, dose response curves for each cell line were measured at a minimum of five concentrations at 10 fold dilutions. A protocol of 48 h continuous drug exposure was used and a sulforhodamine B (SRB) protein assay was used to estimate cell viability or growth. The concentration causing 50% cell growth inhibition (GI50) and 50% cell death (LC50, −50% growth) compared with the control was calculated. Compounds 9a-9l have been evaluated for their in vitro cytotoxicity in eight cell lines from seven human cancer types of lung (Hop-62, A-549) colon (COLO-205) cervix (Si—Ha), ovary (A-2780), prostate (PC3) breast (MCF7), oral (KB). The results are expressed as percent of cell growth determined relative to that of untreated control cells (Table-8 and table-9).

[3] = tested on: SiHa (cervix cancer) cell line; assay: cells; format: cell-based; conditions: for GI50: mean of three determinations
Description: as §1, §2

[4] = tested on: MCF 7 (breast cancer) cell line; assay: cells; format: cell-based; conditions: for GI50: read-out: GI50 MCF 7
Description: as §1, §2

[5] = tested on: HOP 62 (lung cancer) cell line; assay: cells; format: cell-based; conditions: for GI50: mean of three determinations
Description: as §1, §2

[6] = tested on: A 549 (lung cancer) cell line; assay: cells; format: cell-based; conditions: for GI50: mean of three determinations
Description: as §1, §2

[7] = tested on: Colo 205 (colon cancer) cell line; assay: cells; format: cell-based; conditions: for GI50: mean of three determinations
Description: as §1, §2

[8] = tested on: PC 3 (prostate cancer) cell line; assay: cells; format: cell-based; conditions: for GI50: read-out: GI50 PC 3
Description: as §1, §2

[9] = tested on: A 2780 (ovary cancer) cell line; assay: cells; format: cell-based; conditions: for GI50: mean of three determinations
Description: as §1, §2

[10] = tested on: duplex-form calf thymus DNA (CT-DNA); conditions: comparative data, hybrids without piperazine, cited from earlier work
[11] = Homo sapiens, SiHa, 48 h, read-out: GI50 SiHa, 48 h drug exposure, SRB
[12] = Homo sapiens, A2780, 48 h, read-out: GI50 A 2780, 48 h drug exposure, SRB
[13] = 48 h drug exposure, SRB, read-out: GI50 KB

COc1cc2c(cc1OCCCCN1CCN(CCCCOc3cccc(-c4nc5ccccc5s4)c3)CC1)N=C[C@@H]1CCCN1C2=O [Compound 9n, 7-Methoxy-8-[4-(4-{4-[3(1,3-benzothiazol-2-yl)-phenoxy]butyl}piperazin-1-yl)butyl]oxy-(11aS)-1,2,3,11a-tetrahydro-5H-pyrrolo[2,1-c][1,4]benzodiazepin-5-one]
ΔTm after incubation at 37° C. for 0 h [1]: 10.3 °C
ΔTm after incubation at 37° C. for 18 h [1]: 10.6 °C

COc1cc2c(cc1OCCCCN1CCN(CCCCOc3cccc(-c4nc5ccccc5s4)c3)CC1)N=C[C@@H]1CCCN1C2=O [Compound 9h, 7-Methoxy-8-[4-(4-{4-[3(1,3-benzothiazol-2-yl)-phenoxy]butyl}piperazin-1-yl)butyl]oxy-(11aS)-1,2,3,11a-tetrahydro-5H-pyrrolo[2,1-c][1,4]benzodiazepin-5-one]
GI50 ([2]; Homo sapiens, 48 h, read-out: GI50 KB, 48 h drug exposure, SRB): 120 nM
CC50 ([2]; Homo sapiens, 48 h, read-out: LC50 KB, 50% cell death, 48 h drug exposure, SRB): 200 nM
GI50 [3, 11]: 130 nM
LC50 (concentration causing 50% cell death) ([3]; Homo sapiens, SiHa, 48 h, read-out: LC50 SiHa, 50% cell death, 48 h drug exposure, SRB): 27000 nM
GI50 ([4]; Homo sapiens, MCF7, 48 h): 120 nM
LC50 (concentration causing 50% cell death) ([4]; Homo sapiens, MCF7, 48 h, read-out: LC50 MCF 7, 50% cell death, 48 h drug exposure, SRB): 2200 nM
GI50 ([5]; Homo sapiens, HOP-62, 48 h, read-out: GI50 HOP 62, 48 h drug exposure, SRB): 100 nM
LC50 ([5]; Homo sapiens, HOP-62, 48 h, read-out: LC50 HOP 62, 50% cell death, 48 h drug exposure, SRB): 27000 nM
GI50 ([6]; Homo sapiens, A549, 48 h, read-out: GI50 A 549, 48 h drug exposure, SRB): 120 nM
CC50 ([6]; Homo sapiens, A549, 48 h, read-out: LC50 A 549, 50% cell death, 48 h drug exposure, SRB): > 100000 nM
GI50 ([7]; Homo sapiens, COLO 205, 48 h, read-out: GI50 Colo 205, 48 h drug exposure, SRB): 160 nM
CC50 ([7]; Homo sapiens, COLO 205, 48 h, read-out: LC50 Colo 205): > 100000 nM
GI50 ([8]; Homo sapiens, 48 h): 140 nM
CC50 ([8]; Homo sapiens, 48 h, read-out: LC50 Pc 3, 50% cell death, 48 h drug exposure, SRB): 2400 nM
GI50 [9, 12]: 109 nM
CC50 ([9]; Homo sapiens, A2780, 48 h, read-out: LC50 A 2780, 50% cell death, 48 h drug exposure, SRB): 2300 nM
ΔTm after incubation at 37° C. for 0 h [1]: 11.9 °C
ΔTm after incubation at 37° C. for 18 h [1]: 12.3 °C

COc1cc2c(cc1OCCCCN1CCN(CCCCOc3ccc(-c4nc5ccccc5s4)cc3)CC1)N=C[C@@H]1CCCN1C2=O [Compound 9e, 7-Methoxy-8-[4-(4-{4-[4(1,3-benzothiazol-2-yl)-phenoxy]butyl}piperazin-1-yl)butyl]oxy-(11aS)-1,2,3,11a-tetrahydro-5H-pyrrolo[2,1-c][1,4]benzodiazepin-5-one]
LC50 KB ([2]; 50% cell death, 48 h drug exposure, SRB): 2300 nM
GI50 [2, 13]: <10 nM
GI50 [3, 11]: 107 nM
CC50 ([3]; human, 48 h): 27800 nM
GI50 ([4]; Homo sapiens, MCF7, 48 h): < 10 nM
CC50 ([4]; human, 48 h): 150 nM
CC50 ([5]; human, 48 h): 27000 nM
GI50 ([5]; read-out: GI50 HOP 62, 48 h drug exposure, SRB): < 10 nM
CC50 ([6]; human, 48 h): > 100000 nM
GI50 ([6]; read-out: GI50 A 549, 48 h drug exposure, SRB): 105 nM
CC50 ([7]; human, 48 h): > 100000 nM
GI50 ([7]; read-out: GI50 Colo 205, 48 h drug exposure, SRB): 120 nM
GI50 ([8]; Homo sapiens, 48 h): < 10 nM
CC50 ([8]; human, 48 h): 2500 nM
GI50 [9, 12]: 97 nM
CC50 ([9]; human, 48 h): 2200 nM
ΔTm after incubation at 37° C. for 0 h [1]: 12.2 °C
ΔTm after incubation at 37° C. for 18 h [1]: 12.6 °C

COc1cc2c(cc1OCCCCCOc1ccc(-c3nc4ccccc4o3)cc1)N=C[C@@H]1CCCN1C2=O [Compound 30a]
ΔTm after incubation at 37° C. for 0 h (PBD hybrids with out piperizine) [10]: 4.1 °C
ΔTm after incubation at 37° C. for 18 h (PBD hybrids with out piperizine) [10]: 4.3 °C

COc1cc2c(cc1O)N=CC1CCCN1C2=O (stereo not drawn) [DC-81, reference compound]
GI50 [2, 13]: 170 nM
GI50 ([3]; 48 h drug exposure, SRB, read-out: GI50 SiHa): 160 nM
GI50 ([4]; 48 h drug exposure, SRB, mean of three determinations): 160 nM
GI50 ([5]; 48 h drug exposure, SRB, read-out: GI50 HOP 62): 110 nM
GI50 ([7]; 48 h drug exposure, SRB, read-out: GI50 Colo 205): 100 nM
GI50 ([9]; 48 h drug exposure, SRB, read-out: GI50 A 2780): 130 nM
ΔTm after incubation at 37° C. for 0 h [1]: 0.3 °C
ΔTm after incubation at 37° C. for 18 h [1]: 0.7 °C

COc1cc(-c2nc3ccccc3s2)ccc1OCCCCN1CCN(CCCCOc2cc3c(cc2OC)C(=O)N2CCC[C@H]2C=N3)CC1 [Compound 9m, 7-Methoxy-8-[4-(4-{4-[4(1,3-benzothiazol-2-yl)-2-methoxyphenoxy]butyl}piperazin-1-yl)butyl]oxy-(11aS)-1,2,3,11a-tetrahydro-5H-pyrrolo[2,1-c][1,4]benzodiazepin-5-one]
ΔTm after incubation at 37° C. for 0 h [1]: 12.1 °C
ΔTm after incubation at 37° C. for 18 h [1]: 12.5 °C

COc1cccc2c1C(=O)c1c(O)c3c(c(O)c1C2=O)C[C@@](O)(C(=O)CO)C[C@@H]3O[C@H]1C[C@H](N)[C@H](O)[C@H](C)O1 [ADR, adriamycin, reference compound]
GI50 ([2]; Homo sapiens, 48 h, 48 h drug exposure, SRB, read-out: GI50 KB): 160 nM
GI50 ([3]; Homo sapiens, SiHa, 48 h drug exposure, SRB, read-out: GI50 SiHa): 190 nM
GI50 ([4]; Homo sapiens, MCF7, 48 h drug exposure, SRB, mean of three determinations): < 10 nM
GI50 ([5]; Homo sapiens, HOP-62, 48 h drug exposure, SRB, read-out: GI50 HOP 62): < 10 nM
GI50 ([6]; Homo sapiens, A549, 48 h drug exposure, SRB, read-out: GI50 A 549): 13000 nM
GI50 ([7]; Homo sapiens, COLO 205, 48 h drug exposure, SRB, read-out: GI50 Colo 205): 14700 nM
GI50 ([8]; Homo sapiens, 48 h drug exposure, SRB, mean of three determinations): < 10 nM
GI50 ([9]; Homo sapiens, A2780, 48 h drug exposure, SRB, read-out: GI50 A 2780): 2 nM

COc1cc(-c2nc3ccccc3o2)ccc1OCCCCCOc1cc2c(cc1OC)C(=O)N1CCC[C@H]1C=N2 [Compound 30b]
ΔTm after incubation at 37° C. for 0 h (PBD hybrids with out piperizine) [10]: 4.2 °C
ΔTm after incubation at 37° C. for 18 h (PBD hybrids with out piperizine) [10]: 4.3 °C
